# From article PMC7127208 (Bioorganic & Medicinal Chemistry, 2013)
# How the values were obtained:
# Feline herpes virus = assay: Antiviral screening, Feline herpes virus in CRFK cells; type: cell-based; details: read-out: EC50 Feline herpes virus
# Parainfluenza 3-virus = assay: Antiviral screening, Parainfluenza 3-virus in MDCK cells; type: cell-based; details: read-out: EC50 Parainfluenza 3-virus
# Reovirus-1 = assay: Antiviral screening, Reovirus-1 in MDCK cells; type: cell-based; details: read-out: EC50 Reovirus-1
# [1] = system: CEM, HeL, CRFK, HeLa, MDCK cells; details: above mentioned cell lines
# [2] = system: FIV (feline immunodeficiency virus); details: cited from earlier work
# HCMV = assay: Antiviral activity against HCMV; type: cell-based
# FIV = assay: Anti-FIV activity in CrFK cells; type: cell-based, feline immunodeficiency virus
# HSV-2 = assay: Antiviral activity against HSV-2; type: cell-based
# Feline herpesvirus = assay: Antiviral activity against Feline herpesvirus; type: cell-based
# VV = assay: Antiviral activity against VV; type: cell-based
# HSV-1 = assay: Antiviral activity against HSV-1; type: cell-based
SMILES,EC50 (Feline herpes virus) [µg/mL],EC50 (Parainfluenza 3-virus) [µg/mL],EC50 (Reovirus-1) [µg/mL],"MCC, minimum cytotoxicity concentration required to cause a microscopically detectable alteration of normal cell morphology [1] [μg/mL]",further results
"C[C@@H](O)CNc1nc(N)c2ncn(C[C@@H](C)O)c2n1 [compound 3, (R)-1-{6-Amino-2-[(R)-2-(hydroxypropyl)amino]-9H-purin-9-yl}propan-2-ol]",> 100,> 100,> 100,> 100,–
"C[C@@H](O)CNc1nc(N)nc2c1ncn2C[C@@H](C)O [compound 4, (R)-1-{2-Amino-6-[((R)-2-hydroxypropyl)amino]-9H-purin-9-yl}propan-2-ol]",> 100,> 100,> 100,> 100,–
"C[C@H](Cn1cnc2c(NCP(=O)(O)O)nc(N)nc21)OCP(=O)(O)O [compound 10, (R)-9-[2-(Phosphonomethoxy)propyl]-N^6-phosphonomethyl-2,6-diaminopurine]",> 100,> 100,> 100,> 100,–
"C[C@H](Cn1cnc2c(N)nc(N)nc21)OCP(=O)(O)O [compound 12, (R)-9-[2-(phosphonomethoxy)propyl]-2,6-diaminopurine]",–,–,–,–,inhibition of FIV infections in cats [2]: very potent inhibitor
"CCCCCCCCCCCCCCCCOCCCOP(=O)([O-])CO[C@H](C)Cn1cnc2c(N)nc(N)nc21.[Na+] [compound 14, Hexadecyloxypropyl ester of (R)-9-[2-(phosphonomethoxy)propyl]-2,6-diaminopurine, sodium salt]",–,–,–,–,"activity against HCMV (HCMV): No activity; fold more potent in inhibiting FIV replication compared to the parent molecule (FIV; in vitro, versus (R)-PMPDAP): 200 fold; activity against HSV-2 (HSV-2): No activity; activity against Feline herpesvirus (Feline herpesvirus): No activity; activity against VV (VV): No activity; activity against HSV-1 (HSV-1): No activity"
CCOC(=O)[C@H](C)NP(=O)(CO[C@H](C)Cn1cnc2c(N)nc(N)nc21)N[C@@H](C)C(=O)OCC [compound 15],–,–,–,–,fold less active against FIV compared to the parent molecule (FIV): 10 fold
